Consider 3 compounds from patent publication US20210147343A1 (priority 2018, published 2021).

In assay [1] the test system is Male Sprague-Dawley rats. As to the kind of experiment: Hot plate assay. To be noted: rat, SC. The class given is in vivo. The method, then:
Male Sprague-Dawley rats weighing 275-300 grams were used in the study, n=8-10 per group. Animals are injected SC with 0.9% normal saline solution. At 15, 45, and 80 min after the injection, animals were placed onto a hotplate set to 52 degrees centigrade, and baseline latency is recorded (baseline latency=average time to 2nd withdrawal response consisting of either a lick of a rear paw, shaking a rear paw, backwards walking or jumping). A day later animals were injected SC with test compounds either in vehicle solution, or with a mix of compounds in solution. Next the test latency was recorded (test latency=time to withdrawal on the hotplate measured at 15, 45, 80, 120, 180 and 240 min using the procedure described). Times were then converted to % maximum possible effect (% MPE)=(test_latecy−baseline_latency)/(30 sec-baseline_latency); where 30 sec is the cutoff where the animal is removed if no response ifs observed as it is the time point at which injury is expected to occur.

In assay [2] the target is T1, kappa opioid receptor (KOR) (Homo sapiens, UniProt P41145).
T1 construct: host or cells: CHO-K1
The assay is described as follows: cell-based. To be noted: kOR cAMP IC50, CHO-K1 cells expressing kOR; after activation with dynorphin B. An excerpt:
KOR cAMP Antagonist Assay

Assay [3] addresses T2, mu opioid receptor (MOR) (Homo sapiens, UniProt P35372). As to the kind of experiment: MOR cAMP agonist assay.
For assay [4], the target named is T2, mu opioid receptor (MOR). As to the kind of experiment: MOR cAMP antagonist assay. The class given is cell-based. Also on record: host or cells: CHO-K1. The source says: MOR cAMP Antagonist Assay

Usually IC50 stands for the concentration that gives 50% inhibition. For orientation: EC50 means the midpoint of the concentration-response curve. A lower EC50 goes with greater potency.

T2 sequence (P35372 whole entry): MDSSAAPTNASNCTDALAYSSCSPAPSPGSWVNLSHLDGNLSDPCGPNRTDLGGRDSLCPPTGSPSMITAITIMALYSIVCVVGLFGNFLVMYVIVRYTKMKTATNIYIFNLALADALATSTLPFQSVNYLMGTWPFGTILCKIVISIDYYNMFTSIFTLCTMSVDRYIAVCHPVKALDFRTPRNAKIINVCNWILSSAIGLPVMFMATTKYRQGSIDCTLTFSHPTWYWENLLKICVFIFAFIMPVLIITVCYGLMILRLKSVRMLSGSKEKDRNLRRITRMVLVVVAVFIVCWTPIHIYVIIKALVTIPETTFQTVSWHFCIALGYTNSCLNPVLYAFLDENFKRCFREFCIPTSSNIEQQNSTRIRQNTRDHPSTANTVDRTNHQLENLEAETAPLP
T1 sequence (P41145 whole entry): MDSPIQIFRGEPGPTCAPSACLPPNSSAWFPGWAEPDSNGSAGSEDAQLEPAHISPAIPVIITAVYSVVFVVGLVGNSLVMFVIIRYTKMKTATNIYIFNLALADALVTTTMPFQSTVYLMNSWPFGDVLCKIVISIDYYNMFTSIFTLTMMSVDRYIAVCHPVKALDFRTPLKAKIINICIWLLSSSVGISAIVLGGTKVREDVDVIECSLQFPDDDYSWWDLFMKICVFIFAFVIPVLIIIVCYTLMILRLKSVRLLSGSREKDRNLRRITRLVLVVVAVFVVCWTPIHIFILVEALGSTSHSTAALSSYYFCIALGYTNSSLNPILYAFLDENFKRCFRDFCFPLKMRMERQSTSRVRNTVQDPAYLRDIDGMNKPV

Turning to `CN(C)[C@H](CNC(=O)[C@@H]1C[C@]1(C)c1ccccc1)Cc1ccc(O)cc1Cl` [Compound B-15, (1R,2S)—N—((S)-3-(2-chloro-4-hydroxyphenyl)-2-(dimethylamino)-propyl)-2-methyl-2-phenylcyclopropane-1-carboxamide], in assay [1] (co-dosed with Compound B-56, FIG. 1), the “effect on the analgesic activity of agonist Compound B-56 in the hotplate test” value was “blocks”. In assay [1] (dosed alone, FIG. 1), the “effect on its own in the hotplate test” value is listed as “no effect”. The compound also displayed an IC50 in assay [2] of over 1000 nM. For the same compound, the EC50 in assay [3] was over 1000 nM.

With `Cc1cc(O)ccc1C[C@@H](CNC(=O)[C@@H]1C[C@@]1(C)c1ccccc1)N(C)C` [Compound B-56, (1R,2R)—N—((S)-2-(dimethylamino)-3-(4-hydroxy-2-methylphenyl)propyl)-2-methyl-2-phenylcyclopropane-1-carboxamide], the “analgesic activity in the hotplate test (time to exhibit a withdrawal response)” value in assay [1] (hotplate 52 degrees centigrade, FIG. 1) was “analgesic”. The compound also showed an IC50 in assay [2] of under 100 nM. Besides, the EC50 in assay [3] is under 100 nM.

With `CCN(CC)[C@H](CNC(=O)[C@@H]1C[C@]1(C)c1ccccc1)Cc1ccc(O)c(C)c1` [Compound B-41, (1R,2S)—N—((S)-2-(diethylamino)-3-(4-hydroxy-3-methylphenyl)propyl)-2-methyl-2-phenylcyclopropane-1-carboxamide], the IC50 in assay [2] and in assay [4] was 100 to 1000 nM each time. In assay [3], this compound returned an EC50 of under 100 nM.
